The structures appear in SMILES notation.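 Exposure lasted 48 hours, with cells grown in 96-well plates and compounds tested at five concentrations. Here, GI50 denotes the concentration required for 50% inhibition of growth.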 Calls of active or inactive are those of the source. Cut-off read from the data, not from the text of the source: active = GI50 up to about 1.1 µM and inactive = higher. Bounds are passed on as bounds.

Test systems include SK-OV-3; HCC 2998; HCT-116; MDA-N; T47D; SF-295; BT-549; 786-0; SNB-75; NCI-H23; M19-MEL; LOX IMVI; OVCAR-4; MCF7; OVCAR-8; SW-620; Malme-3M; KM12; EKVX.
Common to all, as to test: DTP human tumour cell line panel, 48 h

What is called GI50 is the concentration giving 50% growth inhibition. `O=C1N[C@H]2[C@H](O)[C@H](O)[C@@H](O)[C@H](O)[C@@H]2c2cc3c(c(O)c21)OCO3` [PANCRATISTATIN]: the GI50 is 0.0483 µM (active) in the experiment on SK-OV-3; 0.0403 µM (active) in the experiment on HCC 2998; 0.0297 µM (active) in the experiment with HCT-116; 0.0372 µM (active) in the experiment on MDA-N; 0.0288 µM (active) with T47D; 0.0469 µM (active) with SF-295. Moreover, the GI50 is 0.0493 µM (active) in the experiment on BT-549; 1.58 µM (inactive) in the experiment on 786-0; 0.0301 µM (active) with SNB-75; 0.0445 µM (active) with NCI-H23; 0.0388 µM (active) in the experiment with M19-MEL; 0.0307 µM (active) with LOX IMVI. Moreover, the GI50 is 0.0307 µM (active) in the experiment with OVCAR-4; 0.0369 µM (active) in the experiment on MCF7; 0.0336 µM (active) in the experiment with OVCAR-8; 0.0386 µM (active) in the experiment with SW-620; 0.0352 µM (active) in the experiment on Malme-3M; 0.0393 µM (active) with KM12.
For the compound `O=C(Nc1c(Cl)cc([N+](=O)[O-])cc1Cl)C(=O)C(C(=O)c1ccncc1)C1OC(=O)c2ccccc21` (stereo not drawn), the GI50 in the experiment on SK-OV-3 is > 100 µM (inactive); in the experiment with HCC 2998 it was > 100 µM (inactive); in the experiment on HCT-116 it was > 100 µM (inactive); in the experiment on SF-295, > 100 µM (inactive); with 786-0 it was > 100 µM (inactive); in the experiment with SNB-75, 35 µM (inactive). In addition, the GI50 in the experiment with NCI-H23, in the experiment on M19-MEL, in the experiment with EKVX, in the experiment with LOX IMVI, with OVCAR-4 and in the experiment with OVCAR-8 was > 100 µM (inactive) each time. Further, the GI50 in the experiment with SW-620, in the experiment with Malme-3M and in the experiment with KM12 was > 100 µM (inactive) throughout.
For the compound `C=C(CN(C)C)C(=O)c1ccccc1C`, the GI50 in the experiment on SK-OV-3 was > 100 µM (inactive); in the experiment with HCC 2998, > 100 µM (inactive); in the experiment with HCT-116, 24.8 µM (inactive); with SF-295 it was > 100 µM (inactive); with 786-0 it was 16.9 µM (inactive); in the experiment on SNB-75, > 71.6 µM (inactive). The GI50 in the experiment on NCI-H23 is > 100 µM (inactive); in the experiment with M19-MEL, 23.4 µM (inactive); with EKVX it was > 100 µM (inactive); with LOX IMVI it was > 69.5 µM (inactive); with OVCAR-4, > 57.9 µM (inactive); in the experiment with OVCAR-8 it was > 100 µM (inactive). Besides, the GI50 in the experiment with SW-620 was 16.1 µM (inactive); in the experiment with Malme-3M, 17.9 µM (inactive); in the experiment on KM12, > 100 µM (inactive).
Take `CCOC(=O)Nc1ccc(S(=O)(=O)OC)cc1.CCOC(=O)Nc1ccc(S(=O)(=O)OC)cc1.NNC(=O)c1ccncc1`: the GI50 was > 50 µM (inactive) with SK-OV-3; > 50 µM (inactive) in the experiment on HCC 2998; 14.3 µM (inactive) with HCT-116; > 50 µM (inactive) with SF-295; > 50 µM (inactive) in the experiment on 786-0; > 50 µM (inactive) with SNB-75. The GI50 with NCI-H23, in the experiment with M19-MEL, with EKVX, in the experiment on LOX IMVI, in the experiment on OVCAR-4 and with OVCAR-8 was > 50 µM (inactive) throughout. For the same compound, the GI50 in the experiment with SW-620 was 12.1 µM (inactive); in the experiment on Malme-3M, > 50 µM (inactive); in the experiment on KM12, > 50 µM (inactive).
Turning to `COC(=O)CC(C(C(=O)OC)C(=O)OC)N1C(=O)OCC1c1ccccc1` (stereo not drawn), the GI50 in the experiment with SK-OV-3 is > 100 µM (inactive); with HCC 2998, 28.5 µM (inactive); in the experiment with HCT-116, > 100 µM (inactive); with SF-295 it was > 100 µM (inactive); in the experiment with 786-0, > 100 µM (inactive); with SNB-75, > 100 µM (inactive). In addition, the GI50 in the experiment with NCI-H23, in the experiment with M19-MEL, in the experiment with EKVX, in the experiment on LOX IMVI, in the experiment with OVCAR-4 and in the experiment on OVCAR-8 was > 100 µM (inactive) throughout. In addition, the GI50 was 43.5 µM (inactive) in the experiment with SW-620, > 100 µM (inactive) in the experiment on Malme-3M and > 100 µM (inactive) in the experiment on KM12.
Take `CC1(C(=O)Nc2ccc3cc4ccccc4cc3c2)CC2(C)CC(C)(C1)C(O)NC2=O` (stereo not drawn): the GI50 in the experiment on SK-OV-3 is > 100 µM (inactive); in the experiment with HCC 2998 it was > 100 µM (inactive); with HCT-116, > 100 µM (inactive); with SF-295, 66.5 µM (inactive); in the experiment on 786-0, > 100 µM (inactive); in the experiment on SNB-75, > 100 µM (inactive). Besides, the GI50 with NCI-H23 is > 100 µM (inactive); with M19-MEL, > 100 µM (inactive); in the experiment on EKVX, > 100 µM (inactive); in the experiment on LOX IMVI, 62.4 µM (inactive); in the experiment on OVCAR-4, > 100 µM (inactive); in the experiment on OVCAR-8, > 100 µM (inactive). Moreover, the GI50 is > 100 µM (inactive) in the experiment on SW-620, 57.3 µM (inactive) in the experiment on Malme-3M and > 100 µM (inactive) with KM12.
Consider `Cc1cc2c(cc1C)[n+]([O-])c(C(=O)CC(=O)C(=O)Nc1ccccc1C(C)C)c(C)[n+]2[O-]`, for which the GI50 in the experiment on SK-OV-3, in the experiment on HCC 2998, in the experiment on HCT-116, in the experiment on SF-295, in the experiment on 786-0 and in the experiment with SNB-75 was > 100 µM (inactive) each time. Also, the GI50 with NCI-H23, with M19-MEL, in the experiment on EKVX, with LOX IMVI, in the experiment on OVCAR-4 and in the experiment on OVCAR-8 was > 100 µM (inactive) each time. Besides, the GI50 in the experiment with SW-620, with Malme-3M and with KM12 was > 100 µM (inactive) throughout.
For `CCNc1c(C(=O)N(CC)CC)c(=O)[nH]c2ncccc12`, the GI50 in the experiment on SK-OV-3, in the experiment on HCC 2998, with HCT-116, in the experiment on SF-295, with 786-0 and in the experiment on SNB-75 was > 100 µM (inactive) throughout. Further, the GI50 in the experiment with NCI-H23, with M19-MEL, in the experiment with EKVX, with LOX IMVI, with OVCAR-4 and with OVCAR-8 was > 100 µM (inactive) throughout. Besides, the GI50 in the experiment on SW-620, in the experiment with Malme-3M and in the experiment on KM12 was > 100 µM (inactive) each time.
As for `O=[N+]([O-])c1ccc(Cl)c(C2CC(c3cccc4ccccc34)=Nc3ccccc3S2)c1` (stereo not drawn), the GI50 in the experiment on SK-OV-3 was > 84.7 µM (inactive); with HCC 2998 it was 69 µM (inactive); in the experiment on HCT-116, 6.68 µM (inactive); in the experiment on SF-295, 23.9 µM (inactive); with 786-0 it was 12.4 µM (inactive); in the experiment with SNB-75, 0.195 µM (active). Also, the GI50 in the experiment with NCI-H23 was 11.4 µM (inactive); with M19-MEL, 20.2 µM (inactive); in the experiment on EKVX, 70.8 µM (inactive); in the experiment with LOX IMVI, 20 µM (inactive); in the experiment on OVCAR-4 it was 20.1 µM (inactive); in the experiment with OVCAR-8, 12.9 µM (inactive). Besides, the GI50 was 18.8 µM (inactive) in the experiment with SW-620, > 54.8 µM (inactive) with Malme-3M and 20.2 µM (inactive) with KM12.
Regarding `O=C(C(=O)n1ncc(Cl)c(Cl)c1=O)n1ncc(Cl)c(Cl)c1=O`, the GI50 is > 53.8 µM (inactive) in the experiment on SK-OV-3; 23.3 µM (inactive) in the experiment with HCC 2998; 15.8 µM (inactive) in the experiment on HCT-116; 93.5 µM (inactive) in the experiment on SF-295; 19.5 µM (inactive) in the experiment on 786-0; 40.8 µM (inactive) in the experiment on SNB-75. In addition, the GI50 with NCI-H23 is 19.8 µM (inactive); in the experiment on M19-MEL, 20.4 µM (inactive); with EKVX, 40.4 µM (inactive); in the experiment with LOX IMVI it was 30.1 µM (inactive); in the experiment on OVCAR-4, 19.6 µM (inactive); with OVCAR-8, 23.1 µM (inactive). In addition, the GI50 in the experiment with SW-620 was 19.4 µM (inactive); in the experiment with Malme-3M, 19.7 µM (inactive); in the experiment with KM12 it was 27.7 µM (inactive).
Turning to `O=C(N/C=C1\C(=O)Oc2ccccc2C1=O)Nc1ccccc1`, the GI50 in the experiment with SK-OV-3 was 31.6 µM (inactive); in the experiment on HCC 2998 it was 58.1 µM (inactive); with HCT-116 it was 37.7 µM (inactive); in the experiment with SF-295, > 100 µM (inactive); in the experiment with 786-0, 43.3 µM (inactive); in the experiment on SNB-75, 12.8 µM (inactive). Moreover, the GI50 is 88.7 µM (inactive) in the experiment with NCI-H23; 55.8 µM (inactive) in the experiment on M19-MEL; > 100 µM (inactive) in the experiment with EKVX; 42.4 µM (inactive) in the experiment on LOX IMVI; > 100 µM (inactive) with OVCAR-4; 44.1 µM (inactive) in the experiment on OVCAR-8. The GI50 in the experiment on SW-620 is 61.2 µM (inactive); in the experiment with Malme-3M, 17 µM (inactive); in the experiment on KM12, 64 µM (inactive).
Regarding `CCn1c(C)nn2c(=O)c3ccccc3nc2c1=O`, the GI50 with SK-OV-3, with HCC 2998, in the experiment with HCT-116, in the experiment with SF-295, with 786-0 and in the experiment with SNB-75 was > 100 µM (inactive) each time. Also, the GI50 in the experiment on NCI-H23, in the experiment on M19-MEL, with EKVX, with LOX IMVI, with OVCAR-4 and with OVCAR-8 was > 100 µM (inactive) each time. The GI50 in the experiment on SW-620, in the experiment with Malme-3M and in the experiment on KM12 was > 100 µM (inactive) in each case.

The values above are taken from ChEMBL document CHEMBL1201862, “PubChem BioAssay data set” (2004).
